Assay results as given in EP0620231B1, “Human parvovirus B19 epitope-related peptide” (Shin-Etsu Chemical Co., Ltd., priority 1993, dated 1996).

Columns and labels:
anti-HPV B19 antibodies [1] = test: Secondary screening: reactivity of free synthetic peptides with anti-HPV B19 antibodies; type: binding; details: for Reactivity with Anti-HPV B19 Antibodies: free peptides, symbols ⓞ, X printed without a legend
Description: A secondary screening would be carried out to make clear the reactivity of a free peptide with the anti-HPV B19 antibodies. In this respect, the synthesis of such a free peptide should be performed while taking, into consideration, the degree of difficulty in synthesizing and purifying the corresponding amino acid sequence. Moreover, the number of amino acid residues in the free peptide should be determined after inquiring into possible structures of each amino acid sequence, i.e., the result of the secondary structure-determination using the computer program.
The foregoing primary screening was performed by preparing peptides each equally having 15 amino acid residues therein, but the secondary screening was carried out while preparing various peptides having variously changed amino acid residue numbers due to the reasons discussed above and the inventors have narrowed down to 6 amino acid sequences listed in the following Table 2.
Finally, 6 kinds of free peptides corresponding to the foregoing 6 amino acid sequences were synthesized and were inspected for the reactivity with the anti-HPV B19 antibodies. […]

[2] = tested on: IgM among the anti-HPV antibodies; test: Detection Example 2: ELISA detection of immunoglobulin M (IgM) in patient serum on immobilized peptide; type: binding; details: ELISA with HRP-labeled human IgM antibody; Fig. 5
Description: In this example, the serum obtained from a patient infected with HPV B19 was inspected for the presence of an IgM antibody by the ELISA method. The same procedures used in Detection Example 1 were repeated to give an immobilized solid support and to carry out the same assay except that HRP-labeled human IgM antibody was substituted for the HRP-labeled human IgG antibody used in Detection Example 1.
The peptide of Formula (1) was used in this determination. In addition, the peptides of Formulae (2) and (3) were also used as comparative peptides. The results thus obtained are plotted on Fig. 5.

[3] = tested on: anti-HPV B19 antibody (IgG); test: Detection Example 1: ELISA detection of immunoglobulin G (IgG) in patient serum on immobilized peptide; type: binding, human; details: Fig. 4
Protocol: In this example, the serum obtained from a patient infected with HPV B19 was inspected for the presence of an IgG antibody by the ELISA method. A microtiter plate made of polystyrene was used as a solid support. A peptide solution whose peptide concentration was adjusted to 10µg/mℓ with a phosphate buffer was dispensed to the wells (100µℓ each) of the plate and then the peptide was allowed to be immobilized at room temperature overnight to give an immobilized solid support. The immobilized solid support was then treated with blocking agent for inhibiting any non-specific adsorption reaction of unlinked sites present on the solid support with the IgG antibody. […]
The microtiter plate was washed 6 times with a phosphate buffer, then horseradish peroxidase (HRP)-labeled anti-human IgG antibody which was diluted 1000 times with the same buffer was dispensed to the wells (100µℓ each) and they were reacted at 37°C for one hour. […] The colored product was inspected for the presence of HRP through determination of absorbance at a wavelength of 492 nm using a microtiter plate reader.
The peptide of Formula (1) was used in this determination. […] In Fig. 4, the time after onset of illness is plotted as abscissa and the absorbance as ordinate.

anti-HPV B19 antibodies [4] = test: Detection Example 3: determination of IgG with peptide immobilized through biotin-avidin affinity; type: binding, human; details: biotinylated peptide on avidin plate, Fig. 6
Protocol: This Example is given for illustrating a method in which the immobilized solid support is prepared by immobilizing peptide onto the solid support through the use of the biotin-avidin affinity to thus determine the IgG antibody. First of all, a 250 µg/mℓ solution of biotin-N-hydroxysuccinimide ester (NHS-Biotin) was dispensed to wells (100µℓ each) of a microtiter plate of polystyrene carrying, on the surface, amino groups and the reaction was continued at 37 °C for 2 hours. Then the microtiter plate was washed 6 times with a phosphate buffer, a 50µg/mℓ solution of avidin was dispensed to the wells (100µℓ each) and they were reacted at 37 °C for one hour.
The biotinylated peptide used herein was obtained by coupling NHS-Biotin to the N-terminal of the protected peptide prepared in the same manner used in the foregoing Peptide Preparation Example followed by removal of the protective groups and purification carried out according to the same manner used in the foregoing Peptide Preparation Example. The resulting biotinylated peptide was washed 6 times with a phosphate buffer and subjected to blocking and assay according to the same method used in Detection Example 2.
The peptide of Formula (1) was used in this determination. In addition, the peptides of Formulae (2) and (3) were also used as comparative peptides. The results thus obtained are plotted on Fig. 6. […]

CC[C@H](C)[C@H](NC(=O)CNC(=O)[C@@H](NC(=O)[C@@H](NC(=O)[C@H](Cc1ccc(O)cc1)NC(=O)[C@H](CCCCN)NC(=O)[C@H](CC(=O)O)NC(=O)[C@@H](NC(=O)[C@H](CC(=O)O)NC(=O)[C@H](Cc1c[nH]c2ccccc12)NC(=O)[C@H](Cc1c[nH]cn1)NC(=O)[C@H](Cc1c[nH]cn1)NC(=O)[C@H](Cc1ccc(O)cc1)NC(=O)[C@@H]1CCCN1C(=O)[C@@H](N)CCC(N)=O)[C@@H](C)O)C(C)C)[C@@H](C)O)C(=O)N[C@@H](CC(N)=O)C(=O)N[C@@H](C)C(=O)N[C@H](C(=O)N[C@@H](CO)C(=O)N[C@@H](Cc1c[nH]cn1)C(=O)NCC(=O)N[C@@H](CCC(N)=O)C(=O)N[C@H](C(=O)N[C@H](C(=O)N[C@@H](Cc1ccc(O)cc1)C(=O)O)[C@@H](C)O)[C@@H](C)O)[C@@H](C)CC [Formula (1)]
reactivity with the anti-HPV B19 antibodies compared with the peptide reported by Sato et al. (anti-HPV B19 antibodies [1]; comparison with peptide VP2 328-344): extremely high | Reactivity with Anti-HPV B19 Antibodies (anti-HPV B19 antibodies [1]): ⓞ | reactivity with IgM among the anti-HPV antibodies [2]: high reactivity | reactivity with the anti-HPV B19 antibody (IgG) ([3]; ELISA, absorbance at 492 nm, serum diluted 200 times, peptide 10 µg/ml): high reactivity | reactivity at the initial stage of the infection (the acute stage) ([3]; IgG ELISA, time after onset of illness): strong reactivity | reactivity at the initial stage of the infection (the acute stage) (anti-HPV B19 antibodies [4]): strong reactivity | reactivity with the anti-HPV B19 antibodies (anti-HPV B19 antibodies [4]): high reactivity

CC(C)C[C@H](N)C(=O)N[C@@H](CCCNC(=N)N)C(=O)N1CCC[C@H]1C(=O)NCC(=O)N1CCC[C@H]1C(=O)N[C@H](C(=O)N[C@@H](CO)C(=O)N[C@@H](CCC(N)=O)C(=O)N1CCC[C@H]1C(=O)N[C@@H](Cc1ccc(O)cc1)C(=O)N[C@@H](Cc1c[nH]cn1)C(=O)N[C@@H](Cc1c[nH]cn1)C(=O)N[C@@H](Cc1c[nH]c2ccccc12)C(=O)N[C@@H](CC(=O)O)C(=O)N[C@H](C(=O)N[C@@H](CC(=O)O)C(=O)N[C@@H](CCCCN)C(=O)O)[C@@H](C)O)C(C)C [Formula (3), H-Leu-Arg-Pro-Gly-Pro-Val-Ser-Gln-Pro-Tyr-His-His-Trp-Asp-Thr-Asp-Lys-OH, reference compound]
Reactivity with Anti-HPV B19 Antibodies (anti-HPV B19 antibodies [1]): ○
